In ChEMBL document CHEMBL5634133, “Indirubin derivatives as bifunctional molecules inducing DNA damage and targeting PARP for the treatment of cancer” (Eur J Med Chem, 2023):
The source made the active and inactive calls. No cut-off for these calls is given here.

Tests used:
NCM460 [1] = assay: Antiproliferative activity against human NCM460 cells assessed as inhibition of cell viability incubated for 72 hrs by CCK8 assay; assay type: functional, cell-based; settings: NCM460, 72 h
MCF7 [2] = assay: Antiproliferative activity against human MCF7 cells assessed as inhibition of cell viability incubated for 72 hrs by CCK8 assay; assay type: functional, cell-based; settings: MCF7, 72 h
A549 [3] = assay: Antiproliferative activity against human A549 cells assessed as inhibition of cell viability incubated for 72 hrs by CCK8 assay; assay type: functional, cell-based; settings: A549, 72 h
MV4-11 [4] = assay: Antiproliferative activity against human MV4-11 cells assessed as inhibition of cell viability incubated for 72 hrs by CCK8 assay; assay type: functional, cell-based; settings: MV4-11, 72 h
HCT-116 [5] = assay: Antiproliferative activity against human HCT-116 cells assessed as inhibition of cell viability incubated for 72 hrs by CCK8 assay; assay type: functional, cell-based; settings: HCT-116, 72 h
[6] = target: T1, Poly [ADP-ribose] polymerase 1 (Homo sapiens, UniProt P09874); settings: dose 10.0 nM, time 10.0 min
T1 sequence (P09874 whole entry): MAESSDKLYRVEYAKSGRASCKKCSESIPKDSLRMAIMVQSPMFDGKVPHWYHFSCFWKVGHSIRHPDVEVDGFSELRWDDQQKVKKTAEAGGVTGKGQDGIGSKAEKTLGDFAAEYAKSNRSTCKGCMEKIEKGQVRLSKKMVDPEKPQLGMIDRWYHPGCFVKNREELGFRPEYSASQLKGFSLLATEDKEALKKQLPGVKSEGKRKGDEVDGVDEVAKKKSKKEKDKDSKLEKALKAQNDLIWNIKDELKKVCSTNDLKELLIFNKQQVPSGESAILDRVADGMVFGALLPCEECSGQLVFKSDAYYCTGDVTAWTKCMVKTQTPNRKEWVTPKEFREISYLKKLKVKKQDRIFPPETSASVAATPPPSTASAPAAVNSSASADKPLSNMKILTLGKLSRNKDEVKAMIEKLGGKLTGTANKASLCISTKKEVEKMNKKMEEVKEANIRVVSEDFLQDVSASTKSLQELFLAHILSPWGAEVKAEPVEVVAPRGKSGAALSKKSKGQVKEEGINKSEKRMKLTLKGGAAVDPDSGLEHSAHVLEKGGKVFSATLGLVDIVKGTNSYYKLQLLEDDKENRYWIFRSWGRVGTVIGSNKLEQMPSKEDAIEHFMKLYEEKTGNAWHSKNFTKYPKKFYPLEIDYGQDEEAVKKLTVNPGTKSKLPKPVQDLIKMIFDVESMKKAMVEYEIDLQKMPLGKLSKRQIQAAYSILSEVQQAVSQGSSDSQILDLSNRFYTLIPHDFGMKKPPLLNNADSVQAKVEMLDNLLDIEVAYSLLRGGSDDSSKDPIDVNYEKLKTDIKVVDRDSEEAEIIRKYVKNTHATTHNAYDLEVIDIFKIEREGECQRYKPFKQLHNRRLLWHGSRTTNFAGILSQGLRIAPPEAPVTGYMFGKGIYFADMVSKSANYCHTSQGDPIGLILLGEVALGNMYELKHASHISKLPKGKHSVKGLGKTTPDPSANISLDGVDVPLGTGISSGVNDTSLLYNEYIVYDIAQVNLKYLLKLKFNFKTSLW

[7] = target: T1, Poly [ADP-ribose] polymerase 1; assay: Inhibition of PARP1 (unknown origin) incubated for 10 mins by chemiluminescence assay
A549 [8] = assay: cells; settings: Homo sapiens, A549, 72 h
Description: Antiproliferative activity against human A549 cells assessed as inhibition of cell viability incubated for 72 hrs in presence of IDM by CCK8 assay

HCT-116 [9] = assay: cells; settings: Homo sapiens, HCT-116, 72 h
Description: Antiproliferative activity against human HCT-116 cells assessed as inhibition of cell viability incubated for 72 hrs in presence of IDM by CCK8 assay

NCM460 [10] = assay: cells; settings: Homo sapiens, NCM460, 72 h
Description: Antiproliferative activity against human NCM460 cells assessed as inhibition of cell viability incubated for 72 hrs in presence of IDM by CCK8 assay

MV4-11 [11] = assay: Antiproliferative activity against human MV4-11 cells assessed as inhibition of cell viability incubated for 72 hrs in presence of IDM by CCK8 assay; assay type: functional, cell-based; settings: MV4-11, 72 h
MCF7 [12] = assay: cells; settings: Homo sapiens, MCF7, 72 h
Description: Antiproliferative activity against human MCF7 cells assessed as inhibition of cell viability incubated for 72 hrs in presence of IDM by CCK8 assay

HCT-116 [13] = assay: Antitumor activity against human HCT-116 cells xenografted in BALB/c nude mouse assessed as tumor growth inhibition at 20 mg/kg, ip administered for 14 days relative to control; assay type: functional; settings: time 14 day
HCT-116 [14] = assay: Induction of DNA damage in human HCT-116 cells assessed as increase in gammaH2AX protein level at 1 uM incubated for 48 hrs in presence of IDM by Western blotting analysis; assay type: cell-based

Structure (SMILES)	IC50 (NCM460 [1]) [µM]	IC50 (MCF7 [2]) [µM]	IC50 (A549 [3]) [µM]	IC50 (MV4-11 [4]) [µM]	IC50 (HCT-116 [5]) [µM]	inhibition [6] [%]	IC50 [7] [µM]	IC50 (A549 [8]) [µM]	IC50 (HCT-116 [9]) [µM]	IC50 (NCM460 [10]) [µM]	IC50 (MV4-11 [11]) [µM]	IC50 (MCF7 [12]) [µM]	TGI (HCT-116 [13]) [%]	Activity (HCT-116 [14])
NC(=O)c1cccc2cn(-c3ccc([C@@H]4CCCN(C(=O)c5ccc(CO/N=C6/C(=C7/C(=O)Nc8ccccc87)Nc7ccccc76)cc5)C4)cc3)nc12	> 60	47.3	49.1	39.6	31.3	–	–	–	–	–	–	–	–	–
O=C1Nc2ccc(Br)cc2/C1=C1/Nc2ccc(Br)cc2/C1=N\OCCCC(=O)N1CCN(C(=O)c2cc(Cc3n[nH]c(=O)c4ccccc34)ccc2F)CC1	> 60	48.7	47.2	48.4	8.21	31.1	–	–	–	–	–	–	–	–
O=C1Nc2ccccc2/C1=C1/Nc2ccccc2/C1=N\OCCCCCCCNC(=O)c1cc(Cc2n[nH]c(=O)c3ccccc23)ccc1F	> 60	> 50	> 50	> 50	> 50	–	–	–	–	–	–	–	–	–
O=C1Nc2ccc(F)cc2/C1=C1/Nc2ccc(F)cc2/C1=N\OCCCC(=O)N1CCN(C(=O)c2cc(Cc3n[nH]c(=O)c4ccccc34)ccc2F)CC1	> 60	45.3	42.3	44.4	0.75	49.9	–	–	–	–	–	–	–	–
NC(=O)c1cccc2cn(-c3ccc([C@@H]4CCCN(C(=O)CCCCCCCO/N=C5/C(=C6/C(=O)Nc7ccccc76)Nc6ccccc65)C4)cc3)nc12	> 60	> 50	> 50	> 50	> 50	–	–	–	–	–	–	–	–	–
O=C1Nc2ccccc2/C1=C1/Nc2ccccc2/C1=N\OCCCCCCCC(=O)N1CCN(C(=O)c2ccc(Cc3n[nH]c(=O)c4ccccc34)cc2F)CC1	> 60	> 50	> 50	> 50	43.9	–	–	–	–	–	–	–	–	–
O=C1Nc2ccc(Cl)cc2/C1=C1/Nc2ccccc2/C1=N\OCCCC(=O)N1CCN(C(=O)c2cc(Cc3n[nH]c(=O)c4ccccc34)ccc2F)CC1	> 60	> 50	> 50	> 50	28.3	–	–	–	–	–	–	–	–	–
O=C1Nc2ccc(F)cc2/C1=C1/Nc2ccccc2/C1=N\OCCCC(=O)N1CCN(C(=O)c2cc(Cc3n[nH]c(=O)c4ccccc34)ccc2F)CC1	> 60	38.7	34.7	23.8	19.3	54.9	0.00225	–	–	–	–	–	–	–
O=C1Nc2ccccc2/C1=C1/Nc2ccccc2/C1=N\OCCCCC(=O)N1CCN(C(=O)c2ccc(Cc3n[nH]c(=O)c4ccccc34)cc2F)CC1	> 60	44.3	37.6	38.7	21.1	–	–	–	–	–	–	–	–	–
NC(=O)c1cccc2cn(-c3ccc([C@@H]4CCCN(C(=O)CCCCCO/N=C5/C(=C6/C(=O)Nc7ccccc76)Nc6ccccc65)C4)cc3)nc12	> 60	> 50	> 50	47	29.4	–	–	–	–	–	–	–	–	–
O=C1Nc2ccccc2/C1=C1/Nc2ccccc2/C1=N\OCC1CCN(C(=O)c2cc(Cc3n[nH]c(=O)c4ccccc34)ccc2F)CC1	> 60	> 50	> 50	47.5	45	–	–	–	–	–	–	–	–	–
NC(=O)c1cccc2cn(-c3ccc([C@@H]4CCCNC4)cc3)nc12 [NIRAPARIB]	53.7	11.8	12.6	3.82	1.81	–	–	4.17	0.83	21.1	1.69	1.41	–	–
O=C1Nc2ccccc2/C1=C1/Nc2ccccc2/C1=N\OCCCCCNC(=O)c1cc(Cc2n[nH]c(=O)c3ccccc23)ccc1F	> 60	> 50	> 50	> 50	25.5	–	–	–	–	–	–	–	–	–
O=C1Nc2ccccc2/C1=C1/Nc2ccccc2/C1=N\OCc1ccc(C(=O)N2CCN(C(=O)c3cc(Cc4n[nH]c(=O)c5ccccc45)ccc3F)CC2)cc1	> 60	43.8	42.7	33.1	27.4	–	–	–	–	–	–	–	–	–
O=C1Nc2ccc(Br)cc2/C1=C1/Nc2ccccc2/C1=N\OCCCC(=O)N1CCN(C(=O)c2cc(Cc3n[nH]c(=O)c4ccccc34)ccc2F)CC1	> 60	29.2	27.6	11.4	8.43	53.8	0.00466	–	–	–	–	–	–	–
NC(=O)c1cccc2cn(-c3ccc([C@@H]4CCCN(C(=O)CCCCO/N=C5/C(=C6/C(=O)Nc7ccccc76)Nc6ccccc65)C4)cc3)nc12	> 60	41.9	48.2	36.2	27.3	–	–	–	–	–	–	–	–	–
O=C1Nc2ccccc2/C1=C1/Nc2ccc(F)cc2/C1=N\OCCCC(=O)N1CCN(C(=O)c2cc(Cc3n[nH]c(=O)c4ccccc34)ccc2F)CC1	> 60	32.4	25	21.6	17.8	55.8	0.00446	–	–	–	–	–	–	–
O=C1Nc2ccccc2/C1=C1/Nc2ccccc2/C1=N\OCCCCCC(=O)N1CCN(C(=O)c2ccc(Cc3n[nH]c(=O)c4ccccc34)cc2F)CC1	> 60	> 50	> 50	> 50	32.4	–	–	–	–	–	–	–	–	–
O=C1Nc2ccccc2/C1=C1/Nc2ccccc2/C1=N\OCCCCCCC(=O)N1CCN(C(=O)c2ccc(Cc3n[nH]c(=O)c4ccccc34)cc2F)CC1	> 60	> 50	> 50	> 50	39.2	–	–	–	–	–	–	–	–	–
O=C1Nc2ccccc2/C1=C1/Nc2ccccc2/C1=N\OCCCCNC(=O)c1cc(Cc2n[nH]c(=O)c3ccccc23)ccc1F	8.04	1.82	4.41	11.7	3.1	–	–	–	–	–	–	–	–	–
O=C(c1cc(Cc2n[nH]c(=O)c3ccccc23)ccc1F)N1CCN(C(=O)C2CC2)CC1 [OLAPARIB]	67.2	93.9	29.5	13.4	11.1	50.6	–	6.06	1.37	20.2	2.36	2.33	32.5	Active
O=C1Nc2ccccc2/C1=C1/Nc2ccccc2/C1=N\OCCCNC(=O)c1cc(Cc2n[nH]c(=O)c3ccccc23)ccc1F	9.37	6.89	8.22	14.9	13.7	–	–	–	–	–	–	–	–	–
NC(=O)c1cccc2cn(-c3ccc([C@@H]4CCCN(C(=O)CCCCCCO/N=C5/C(=C6/C(=O)Nc7ccccc76)Nc6ccccc65)C4)cc3)nc12	> 60	> 50	> 50	> 50	> 50	–	–	–	–	–	–	–	–	–
O=C1Nc2ccccc2/C1=C1/Nc2ccccc2/C1=N\OCCCCCCNC(=O)c1cc(Cc2n[nH]c(=O)c3ccccc23)ccc1F	> 60	> 50	> 50	> 50	47.2	–	–	–	–	–	–	–	–	–
